From patent US9936701B2, “Herbicidal compounds” (Syngenta Participations AG, priority 2013, dated 2018)

Key:
[1] = system: a variety of test species; assay: Pre-emergence herbicidal activity (glasshouse, sprayed one day after sowing, evaluated after 13 days); type: in vivo; design: key: 5=total damage to plant; 0=no damage to plant; conditions: application pre-emergence, rate 1000 g/Ha, scale 0-5
Summary of the method: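 Sow in pots of standard soil; after one day under glasshouse conditions, spray compound (acetone/water 50:50 formulation, 0.5% Tween 20, diluted in water). Grow on at 24/16 °C, 14 h light, 65% humidity with twice-daily watering. Assess at 13 days, 0–5 damage scale.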

[2] = system: a variety of test species; assay: Post-emergence herbicidal activity (glasshouse, sprayed after 8 days cultivation, evaluated after 13 days); type: in vivo; design: key: 5=total damage to plant; 0=no damage to plant; conditions: rate 1000 g/Ha, scale 0-5
Summary of the method: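 Pot-grown plants, 8 days after sowing, were sprayed with compound formulated in acetone/water (50:50) with 0.5% Tween 20. Glasshouse conditions 24/16° C day/night, 14 h light, 65% humidity; damage scored after 13 days on a 0 (none) to 5 (total) scale.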

Row | melting point [°C] | Structure (SMILES) | Pre-emergence herbicidal damage score, ABUTH [1] | Pre-emergence herbicidal damage score, ALOMY [1] | Pre-emergence herbicidal damage score, AMARE [1] | Pre-emergence herbicidal damage score, ECHCG [1] | Pre-emergence herbicidal damage score, SETFA [1] | Pre-emergence herbicidal damage score, ZEAMX [1] | ABUTH (Abutilon theophrasti) damage score, application post-emergence [2] | ALOMY (Alopecurus myosuroides) damage score, application post-emergence [2] | AMARE (Amaranthus retroflexus) damage score, application post-emergence [2] | ECHCG (Echinochloa crus-galli) damage score, application post-emergence [2] | SETFA (Setaria faberi) damage score, application post-emergence [2] | ZEAMX (Zea mays) damage score, application post-emergence [2]
1 | 93 to 95 | CCC1=C(Cl)C(=O)N(c2noc(C(C)C)c2C#N)C1O (stereo not shown) [A63] | 5 | 3 | 5 | 5 | 5 | 3 | 5 | 4 | 5 | 5 | 5 | 3
2 | 101 to 102 | CCC1=C(Cl)C(=O)N(c2cc(C(C)(C)C#N)on2)C1O (stereo not shown) [A64] | 4 | 3 | 5 | 5 | 5 | 1 | 5 | 5 | 5 | 5 | 5 | 4
3 | 99 to 100 | CCCC1=C(Cl)C(=O)N(c2cc(C(C)(C)C#N)on2)C1O (stereo not shown) [A65] | 5 | 3 | 5 | 5 | 5 | 2 | 5 | 5 | 5 | 5 | 5 | 4
4 | 150 to 152 | C=CC(C)(C)c1onc(N2C(=O)C(Cl)=C(C)C2O)c1C#N (stereo not shown) [A66] | 5 | 3 | 5 | 5 | 4 | 1 | 5 | 5 | 5 | 5 | 5 | 3
5 | 82 to 84 | CCCC1=C(Cl)C(=O)N(c2noc(C(C)(C)CC)c2C#N)C1O (stereo not shown) [A68] | 4 | 3 | 3 | 5 | 5 | 1 | 5 | 5 | 5 | 5 | 5 | 1

Second part, the compound before the results:

Row | Structure (SMILES) | melting point [°C] | Pre-emergence herbicidal damage score, ABUTH [1] | Pre-emergence herbicidal damage score, ALOMY [1] | Pre-emergence herbicidal damage score, AMARE [1] | Pre-emergence herbicidal damage score, ECHCG [1] | Pre-emergence herbicidal damage score, SETFA [1] | Pre-emergence herbicidal damage score, ZEAMX [1] | ABUTH (Abutilon theophrasti) damage score, application post-emergence [2] | ALOMY (Alopecurus myosuroides) damage score, application post-emergence [2] | AMARE (Amaranthus retroflexus) damage score, application post-emergence [2] | ECHCG (Echinochloa crus-galli) damage score, application post-emergence [2] | SETFA (Setaria faberi) damage score, application post-emergence [2] | ZEAMX (Zea mays) damage score, application post-emergence [2]
6 | CCCC1=C(Br)C(=O)N(c2cc(C(C)(C)C#N)on2)C1O (stereo not shown) [A52] | 80 to 82 | 5 | 4 | 5 | 5 | 5 | 4 | 5 | 5 | 5 | 5 | 5 | 5
7 | CC1=C(Br)C(=O)N(c2cc(C(C)(C)C#N)on2)C1O (stereo not shown) [A53] | 138 to 140 | 5 | 4 | 5 | 5 | 5 | 4 | 5 | 5 | 5 | 5 | 5 | 5
8 | CCCC1=C(Cl)C(=O)N(c2noc(C(C)(C)C)c2C#N)C1O (stereo not shown) [A54] | 133 to 135 | 5 | 4 | 5 | 5 | 5 | 4 | 5 | 5 | 5 | 5 | 5 | 5
9 | CCC1=C(Br)C(=O)N(c2noc(C(C)(C)C)c2C#N)C1O (stereo not shown) [A55] | 138 to 140 | 5 | 4 | 5 | 5 | 5 | 3 | 5 | 5 | 5 | 5 | 5 | 4
10 | CCC1=C(Cl)C(=O)N(c2noc(C(C)(C)C)c2C#N)C1O (stereo not shown) [A58] | 134 to 136 | 5 | 4 | 5 | 5 | 5 | 4 | 5 | 5 | 5 | 5 | 5 | 5
11 | CCC1=C(Cl)C(=O)N(c2noc(C(C)(C)CC)c2C#N)C1O (stereo not shown) [A60] | 110 to 112 | 5 | 3 | 5 | 4 | 5 | 3 | 5 | 4 | 5 | 5 | 5 | 2
12 | CC1=C(Br)C(=O)N(c2noc(C(C)C)c2C#N)C1O (stereo not shown) [A61] | 127 to 129 | 5 | 4 | 5 | 5 | 5 | 3 | 5 | 5 | 5 | 5 | 5 | 3
13 | CCC1=C(Br)C(=O)N(c2noc(C(C)C)c2C#N)C1O (stereo not shown) [A62] | 106 to 108 | 5 | 3 | 5 | 4 | 5 | 3 | 5 | 4 | 5 | 5 | 5 | 3
